# In US20120034193A1, “TREATMENT OF NEUROTROPHIC FACTOR MEDIATED DISORDERS” (priority 2009, published 2012):
# Key:
# [1] = tested on: Adrenergic α1, non selective; assay: Receptor binding assay; set-up: species or system Rat; conditions: sarsasapogenin 10 μM
# Description: (§1) The receptor binding was investigated using the following method: Sarsasapogenin was incubated with tissue or cell homogenate that expressed the receptor of interest and a known concentration a radiolabelled compound with affinity for the receptor of interest. After the incubation period the non-bound radiolabelled compound was removed and the amount of specific binding was quantified. The amount of specific binding in the presence and absence of sarsasapogenin were compared and the percent inhibition of the binding of the radiolabelled compound by sarsasapogenin was calculated. The source of the receptor, the incubation conditions, the radiolabelled compound used varied depending on each specific assay.
# [2] = tested on: Adrenergic α2, non selective; assay: Receptor binding assay; set-up: species or system Rat; conditions: sarsasapogenin 10 μM
# Description: as §1
# [3] = tested on: Adrenergic β, non selective; assay: Receptor binding assay; set-up: species or system Rat; conditions: sarsasapogenin 10 μM
# Description: as §1
# GABAA = assay: Receptor binding assay; set-up: species or system Rat; conditions: sarsasapogenin 10 μM
# Description: as §1
# Glutamate = assay: Receptor binding assay; set-up: species or system Rat; conditions: sarsasapogenin 10 μM
# Description: as §1
# Serotonin 5-HT1 = assay: Receptor binding assay; set-up: species or system Rat; conditions: sarsasapogenin 10 μM
# Description: as §1
# Oestrogen = assay: Receptor binding assay; set-up: species or system Bovine; conditions: sarsasapogenin 10 μM
# Description: as §1
# Progesterone = assay: Receptor binding assay; set-up: species or system Bovine; conditions: sarsasapogenin 10 μM
# Description: as §1
# Adrenergic β3 = Adrenergic β3 (Homo sapiens, UniProt P13945); assay: Binding assay; conditions: smilagenin 1 μM
# Sequence of Adrenergic β3 (P13945 whole entry): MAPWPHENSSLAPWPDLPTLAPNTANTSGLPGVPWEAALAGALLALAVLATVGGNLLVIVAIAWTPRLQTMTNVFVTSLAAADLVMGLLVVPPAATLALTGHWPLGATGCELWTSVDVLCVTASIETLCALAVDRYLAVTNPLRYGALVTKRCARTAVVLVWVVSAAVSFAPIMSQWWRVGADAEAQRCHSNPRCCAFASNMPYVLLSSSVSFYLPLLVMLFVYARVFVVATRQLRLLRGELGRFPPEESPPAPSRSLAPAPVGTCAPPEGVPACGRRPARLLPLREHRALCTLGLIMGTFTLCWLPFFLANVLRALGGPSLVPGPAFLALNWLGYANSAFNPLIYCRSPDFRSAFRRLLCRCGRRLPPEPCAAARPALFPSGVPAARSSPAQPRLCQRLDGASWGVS
# Description: as §1
# (§2) Using the same methods as described above, the binding of smilagenin (1 μM) to the receptors listed in Table 2 below, and the effect of smilagenin on the activity of the enzymes listed in Table 2 below, were investigated.
# Calcitonin = Calcitonin (Homo sapiens, UniProt P30988); assay: Binding assay; conditions: smilagenin 1 μM
# Sequence of Calcitonin (P30988 25-474): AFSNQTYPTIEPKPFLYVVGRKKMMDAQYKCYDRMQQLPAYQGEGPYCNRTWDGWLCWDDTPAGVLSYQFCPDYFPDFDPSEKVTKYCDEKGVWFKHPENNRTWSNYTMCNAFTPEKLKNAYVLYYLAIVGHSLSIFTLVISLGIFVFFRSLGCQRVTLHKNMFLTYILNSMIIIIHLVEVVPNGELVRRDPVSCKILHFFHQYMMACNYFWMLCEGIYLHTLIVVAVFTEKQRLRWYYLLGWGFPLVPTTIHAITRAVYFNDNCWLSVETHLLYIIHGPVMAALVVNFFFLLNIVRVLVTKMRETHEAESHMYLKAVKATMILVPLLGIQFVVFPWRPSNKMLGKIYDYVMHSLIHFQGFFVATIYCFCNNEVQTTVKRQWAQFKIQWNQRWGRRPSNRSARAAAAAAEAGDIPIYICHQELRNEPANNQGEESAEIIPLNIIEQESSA
# Description: as §1, §2
# Glutamate, NMDA, Glycine = target: T1, Glutamate, NMDA, Glycine (Rattus norvegicus, UniProt P35439); assay: Binding assay; conditions: smilagenin 1 μM
# T1 construct: host or cells: tissue or cell homogenate (not specified)
# Description: as §1, §2
# Histamine H1 = target: T2, Histamine H1 (Homo sapiens, UniProt P35367); assay: Binding assay; conditions: smilagenin 1 μM
# T2 construct: host or cells: tissue or cell homogenate (not specified)
# T2 sequence (P35367 whole entry): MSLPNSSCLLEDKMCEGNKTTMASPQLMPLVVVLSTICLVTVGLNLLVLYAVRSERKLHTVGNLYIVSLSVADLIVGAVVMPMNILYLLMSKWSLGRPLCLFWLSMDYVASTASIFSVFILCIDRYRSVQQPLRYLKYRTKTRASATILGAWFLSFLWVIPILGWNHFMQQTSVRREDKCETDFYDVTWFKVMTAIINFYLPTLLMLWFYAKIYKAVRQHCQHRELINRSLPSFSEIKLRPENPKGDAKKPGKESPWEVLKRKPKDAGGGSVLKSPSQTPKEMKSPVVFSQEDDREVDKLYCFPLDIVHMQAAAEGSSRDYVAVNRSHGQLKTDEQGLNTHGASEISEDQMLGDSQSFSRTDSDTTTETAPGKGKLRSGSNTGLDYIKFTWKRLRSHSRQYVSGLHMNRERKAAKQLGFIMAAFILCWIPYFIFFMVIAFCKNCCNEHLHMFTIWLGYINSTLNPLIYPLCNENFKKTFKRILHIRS
# Description: as §1, §2
# Orphanin ORL1 = Orphanin ORL1 (Homo sapiens, UniProt P41146); assay: Binding assay; conditions: smilagenin 1 μM
# Sequence of Orphanin ORL1 (P41146 whole entry): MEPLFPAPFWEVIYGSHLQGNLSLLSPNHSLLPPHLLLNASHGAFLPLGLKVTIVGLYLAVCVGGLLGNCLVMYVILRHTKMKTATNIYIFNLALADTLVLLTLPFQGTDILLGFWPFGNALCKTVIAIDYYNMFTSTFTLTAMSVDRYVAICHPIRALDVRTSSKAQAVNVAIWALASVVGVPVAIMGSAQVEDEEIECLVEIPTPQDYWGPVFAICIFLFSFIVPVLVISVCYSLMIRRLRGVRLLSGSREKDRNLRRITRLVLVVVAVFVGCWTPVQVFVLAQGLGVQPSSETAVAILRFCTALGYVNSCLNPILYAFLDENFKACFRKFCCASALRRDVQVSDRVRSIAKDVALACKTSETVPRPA
# Description: as §1, §2
# Vasopressin V2 = target: T3, Vasopressin V2 (Homo sapiens, UniProt P30518); assay: Binding assay; conditions: smilagenin 1 μM
# T3 construct: host or cells: tissue or cell homogenate, not specified
# T3 sequence (P30518 whole entry): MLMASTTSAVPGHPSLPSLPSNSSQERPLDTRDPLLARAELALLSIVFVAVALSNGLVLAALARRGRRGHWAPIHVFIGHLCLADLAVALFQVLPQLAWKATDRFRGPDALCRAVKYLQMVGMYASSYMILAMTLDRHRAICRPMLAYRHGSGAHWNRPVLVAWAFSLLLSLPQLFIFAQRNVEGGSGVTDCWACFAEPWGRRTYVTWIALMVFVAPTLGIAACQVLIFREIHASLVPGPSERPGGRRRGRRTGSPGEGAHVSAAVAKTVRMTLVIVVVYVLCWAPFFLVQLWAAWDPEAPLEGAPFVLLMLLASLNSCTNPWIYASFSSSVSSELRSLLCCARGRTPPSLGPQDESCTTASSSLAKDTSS
# Description: as §1, §2
# [4] = tested on: Calcium Channel L-Type, Dihydropyridine; assay: Binding assay; set-up: species or system Rat; conditions: smilagenin 1 μM
# Description: as §1, §2
# [5] = tested on: GABAA Chloride Channel, TBOB; assay: Binding assay; set-up: species or system Rat; conditions: smilagenin 1 μM
# Description: as §1, §2
# [6] = tested on: Glutamate, NMDA, Phencyclidine; assay: Binding assay; set-up: species or system Rat; conditions: smilagenin 1 μM
# Description: as §1, §2
# [7] = tested on: Glutamate, NMDA, Polyamine; assay: Binding assay; set-up: species or system Rat; conditions: smilagenin 1 μM
# Description: as §1, §2
# Imidazoline I2, central = assay: Binding assay; set-up: species or system Rat; conditions: smilagenin 1 μM
# Description: as §1, §2
# Potassium Channel [KA] = assay: Binding assay; set-up: species or system Rat; conditions: smilagenin 1 μM
# Description: as §1, §2
# Sodium Channel, Site 2 = assay: Binding assay; set-up: species or system Rat; conditions: smilagenin 1 μM
# Description: as §1, §2
# Transporter, GABA = assay: Binding assay; set-up: species or system Rat; conditions: smilagenin 1 μM
# Description: as §1, §2
# [8] = target: Nicotinic Acetylcholine α1, Bungarotoxin (Homo sapiens, UniProt P02708+P07510+Q07001); assay: Binding assay; conditions: smilagenin 1 μM
# Sequence of Nicotinic Acetylcholine α1, Bungarotoxin (P07510 23-517): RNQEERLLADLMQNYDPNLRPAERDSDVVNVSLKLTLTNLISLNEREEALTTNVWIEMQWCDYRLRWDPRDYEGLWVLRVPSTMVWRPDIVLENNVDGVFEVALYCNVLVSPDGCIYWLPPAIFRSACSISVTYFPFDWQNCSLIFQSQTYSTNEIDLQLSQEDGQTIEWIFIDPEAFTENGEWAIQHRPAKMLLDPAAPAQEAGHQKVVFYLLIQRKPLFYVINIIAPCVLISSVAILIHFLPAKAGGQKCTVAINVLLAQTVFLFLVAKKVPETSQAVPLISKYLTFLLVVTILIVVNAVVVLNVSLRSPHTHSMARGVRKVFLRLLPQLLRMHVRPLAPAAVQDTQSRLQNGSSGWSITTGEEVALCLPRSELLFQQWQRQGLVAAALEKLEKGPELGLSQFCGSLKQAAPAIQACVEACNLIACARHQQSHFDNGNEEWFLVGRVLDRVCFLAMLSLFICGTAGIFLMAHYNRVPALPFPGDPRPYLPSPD
# Sequence of Nicotinic Acetylcholine α1, Bungarotoxin (P11230 24-501, further chain): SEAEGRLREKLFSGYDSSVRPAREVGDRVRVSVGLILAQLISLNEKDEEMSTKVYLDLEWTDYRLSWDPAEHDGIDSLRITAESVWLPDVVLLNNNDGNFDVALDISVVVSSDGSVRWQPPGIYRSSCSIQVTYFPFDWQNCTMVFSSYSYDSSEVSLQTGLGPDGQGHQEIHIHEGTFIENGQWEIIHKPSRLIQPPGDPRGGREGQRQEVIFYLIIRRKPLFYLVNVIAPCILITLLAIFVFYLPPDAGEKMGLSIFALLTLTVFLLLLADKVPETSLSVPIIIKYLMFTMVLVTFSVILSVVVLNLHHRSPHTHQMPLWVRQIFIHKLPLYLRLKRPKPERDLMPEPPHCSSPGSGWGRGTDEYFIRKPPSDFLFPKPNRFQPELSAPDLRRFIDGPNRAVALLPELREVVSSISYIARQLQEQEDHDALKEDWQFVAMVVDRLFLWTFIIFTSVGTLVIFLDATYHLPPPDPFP
# Sequence of Nicotinic Acetylcholine α1, Bungarotoxin (Q07001 22-517): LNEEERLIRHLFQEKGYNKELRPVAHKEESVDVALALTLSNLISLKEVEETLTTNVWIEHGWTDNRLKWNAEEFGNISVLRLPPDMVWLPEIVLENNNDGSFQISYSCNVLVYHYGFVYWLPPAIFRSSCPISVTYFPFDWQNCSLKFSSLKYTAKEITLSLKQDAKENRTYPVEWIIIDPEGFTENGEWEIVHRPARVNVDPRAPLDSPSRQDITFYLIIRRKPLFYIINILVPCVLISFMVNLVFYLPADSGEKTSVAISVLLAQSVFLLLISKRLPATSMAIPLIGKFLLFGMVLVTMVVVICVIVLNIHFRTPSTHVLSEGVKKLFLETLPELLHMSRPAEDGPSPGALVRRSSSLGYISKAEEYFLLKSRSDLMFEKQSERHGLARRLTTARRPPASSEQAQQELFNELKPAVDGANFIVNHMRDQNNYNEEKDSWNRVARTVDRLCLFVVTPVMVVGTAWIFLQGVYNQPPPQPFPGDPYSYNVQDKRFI
# Sequence of Nicotinic Acetylcholine α1, Bungarotoxin (P02708 21-457): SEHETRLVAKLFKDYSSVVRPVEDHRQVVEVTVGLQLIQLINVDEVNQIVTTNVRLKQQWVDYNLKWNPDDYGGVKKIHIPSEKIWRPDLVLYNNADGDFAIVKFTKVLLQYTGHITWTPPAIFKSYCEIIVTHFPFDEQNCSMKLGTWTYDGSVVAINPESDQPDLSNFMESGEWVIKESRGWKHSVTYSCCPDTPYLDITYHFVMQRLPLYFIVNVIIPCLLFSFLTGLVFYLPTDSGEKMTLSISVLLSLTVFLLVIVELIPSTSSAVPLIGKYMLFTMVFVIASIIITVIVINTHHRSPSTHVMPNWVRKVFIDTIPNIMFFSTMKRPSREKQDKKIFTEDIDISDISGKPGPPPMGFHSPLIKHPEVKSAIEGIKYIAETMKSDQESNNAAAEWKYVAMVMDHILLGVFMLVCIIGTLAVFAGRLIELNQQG
# Phorbol Ester = assay: Binding assay; set-up: species or system Mouse; conditions: smilagenin 1 μM
# Description: as §1, §2
# [9] = tested on: Platelet-Derived Growth Factor (PDGF); assay: Binding assay; set-up: species or system Mouse; conditions: smilagenin 1 μM
# Description: as §1, §2
# [10] = tested on: Transforming Growth Factor-β (TGF-β); assay: Binding assay; set-up: species or system Mouse; conditions: smilagenin 1 μM
# Description: as §1, §2
# [11] = tested on: Free Radical Scavenger, SOD Mimetic; assay: Functional assay; assay type: biochemical, Bovine; conditions: smilagenin 1 μM
# Description: The enzyme activity modulation was investigated using the following method: Sarsasapogenin was incubated with each enzyme plus a specific substrate for each enzyme. After the incubation period the reaction was stopped and the reduction of the specific substrate or the increase in a specific product in the absence and presence of sarsasapogenin was measured and the percent inhibition of the reaction in the presence of sarsasapogenin was calculated. The amount of enzyme used, the incubation conditions, the substrate used and the method of quantification varied depending on each specific assay.
# as §2
# [12] = tested on: Rat dopaminergic neurones; assay: TH positive neurones and neurite outgrowth after MPP+ exposure; assay type: cell-based; conditions: 10 μM from day 6, MPP+ 2 μM day 8 for 48 h
# Description: Rat dopaminergic neurones were prepared using a slightly modified previously described method (Brouard et al., Journal of Neuroscience, 1992, 12, pp. 1409-1415). On day 6 the culture medium was replaced with fresh medium or fresh medium containing smilagenin (10 μM) or vehicle (DMSO, 0.25%). On day 8, MPP^+ (2 μM) or vehicle (saline) was added and 48 h later dopaminergic neurones were stained and the concentration of GDNF in the culture medium, neuronal damage and neurite outgrowth were assessed.
# GDNF = assay: Striatal GDNF in MPTP-lesioned mice (ELISA); assay type: in vivo, C57b1/6 RJ mice; conditions: smilagenin 10 mg/kg/day oral, 60 days, striatum
# Description: Seven-week old male C57b1/6 RJ mice (C57 mice) received daily injections 1-methyl-4-phenyl-1,2,3,6-tetrahydropyridine (MPTP, 25 mg/kg/day, i.p., for 5 consecutive days) and oral administration of smilagenin (10 mg/kg/day) or vehicle (hydroxylpropylmethylcellulose, HPMC 0.5% w/v containing tween-80 0.2% v/v) for 60 days after which time their brains were removed for quantification of striatal levels of GDNF and BDNF using an ELISA and of dopamine transporter (DAT) levels using [I^125]-RTI binding. DAT is a marker for neuronal damage to dopaminergic neurones.
smiles,measurement,setting,value
"C[C@H]1CC[C@@]2(OC1)O[C@H]1C[C@H]3[C@@H]4CC[C@@H]5C[C@@H](O)CC[C@]5(C)[C@H]4CC[C@]3(C)[C@H]1[C@@H]2C [Sarsasapogenin, sarsasapogenin]",Effect (%),[1],NS (NS = No significant response. Significance was taken as ≧30% stimulation or inhibition)
same,Effect (%),[2],NS (NS = No significant response. Significance was taken as ≧30% stimulation or inhibition)
same,Effect (%),[3],NS (NS = No significant response. Significance was taken as ≧30% stimulation or inhibition)
same,Effect (%),GABAA,NS (NS = No significant response. Significance was taken as ≧30% stimulation or inhibition)
same,Effect (%),Glutamate,NS (NS = No significant response. Significance was taken as ≧30% stimulation or inhibition)
same,Effect (%),Serotonin 5-HT1,NS (NS = No significant response. Significance was taken as ≧30% stimulation or inhibition)
same,Effect (%),Oestrogen,NS (NS = No significant response. Significance was taken as ≧30% stimulation or inhibition)
same,Effect (%),Progesterone,NS (NS = No significant response. Significance was taken as ≧30% stimulation or inhibition)
"C[C@@H]1CC[C@@]2(OC1)O[C@H]1C[C@H]3[C@@H]4CC[C@@H]5C[C@@H](O)CC[C@]5(C)[C@H]4CC[C@]3(C)[C@H]1[C@@H]2C [Smilagenin, smilagenin]",Effect (%),Adrenergic β3,NS (NS = No significant response. Significance was taken as ≧30% stimulation or inhibition)
same,Effect (%),Calcitonin,NS (NS = No significant response. Significance was taken as ≧30% stimulation or inhibition)
same,Effect (%),"Glutamate, NMDA, Glycine",NS (NS = No significant response. Significance was taken as ≧30% stimulation or inhibition)
same,Effect (%),Histamine H1,NS (NS = No significant response. Significance was taken as ≧30% stimulation or inhibition)
same,Effect (%),Orphanin ORL1,NS (NS = No significant response. Significance was taken as ≧30% stimulation or inhibition)
same,Effect (%),Vasopressin V2,NS (NS = No significant response. Significance was taken as ≧30% stimulation or inhibition)
same,Effect (%),[4],NS (NS = No significant response. Significance was taken as ≧30% stimulation or inhibition)
same,Effect (%),[5],NS (NS = No significant response. Significance was taken as ≧30% stimulation or inhibition)
same,Effect (%),[6],NS (NS = No significant response. Significance was taken as ≧30% stimulation or inhibition)
same,Effect (%),[7],NS (NS = No significant response. Significance was taken as ≧30% stimulation or inhibition)
same,Effect (%),"Imidazoline I2, central",NS (NS = No significant response. Significance was taken as ≧30% stimulation or inhibition)
same,Effect (%),Potassium Channel [KA],NS (NS = No significant response. Significance was taken as ≧30% stimulation or inhibition)
same,Effect (%),"Sodium Channel, Site 2",NS (NS = No significant response. Significance was taken as ≧30% stimulation or inhibition)
same,Effect (%),"Transporter, GABA",NS (NS = No significant response. Significance was taken as ≧30% stimulation or inhibition)
same,Effect (%),[8],NS (NS = No significant response. Significance was taken as ≧30% stimulation or inhibition)
same,Effect (%),Phorbol Ester,NS (NS = No significant response. Significance was taken as ≧30% stimulation or inhibition)
same,Effect (%),[9],NS (NS = No significant response. Significance was taken as ≧30% stimulation or inhibition)
same,Effect (%),[10],NS (NS = No significant response. Significance was taken as ≧30% stimulation or inhibition)
same,Effect (%),[11],NS (NS = No significant response. Significance was taken as ≧30% stimulation or inhibition)
same,Neurite outgrowth (% of control),[12],62.1 ± 7.0 % of control
same,Number of TH positive neurones per field (% of control),[12],57.1 ± 5.2 % of control
same,GDNF (% increase above MPTP mice),GDNF,372 ± 92 %
same,GDNF (pg/mg tissue),GDNF,275.31 ± 59.62 pg/mg tissue
